For 3 compounds, inhibition results are on record in patent publication US12168668B2, “Compounds for the treatment of cancer and inflammatory disease” (SHY Therapeutics LLC, priority 2015, dated 2024).

Test [1] concerns TNFα. Put plainly: Mouse TNF alpha quantification assay (LPS-stimulated RAW 264.7, ELISA). The class given is cell-based. The settings on record: RAW264.7, RAW 264.7 macrophage cell line, LPS stimulation 16 h. The method, then:
(§1) Protocol for Mouse TNF Alpha and IL6 Quantification Assay
(§2) Cell lines: Abelson murine leukemia virus transformed macrophage cell line RAW 264.7 was purchased from ATCC and grown in complete DMEM-High Glucose medium supplemented with penicillin (100 U/mL), streptomycin (100 μg/mL), and 10% heat-inactivated FBS at 37° C. in a humidified incubator with 5% CO2.
(§3) Method: Cells were plated at 40000 cells/well density in a 96-wells plate. After a 3-hour incubation, macrophages were starved with DMEM plus 0.5% FBS o/n. The next day the small molecules to be tested were added to the cells in the final concentration of 30 μM (with 0.3% DMSO) 3 hours prior to LPS stimulation (100 ng/ml). After LPS stimulation cells were incubated at 37° C. for 16 h. At the end of the incubation period, culture media were collected and production of LPS-induced TNFα and IL6 cytokine was measured using ELISA detection kits.
(§4) Sandwich ELISA: The ELISA Immunoassays Quantikine Mouse TNF-alpha (catalog number MTA00B) and IL6 (catalog number M6000B) were purchased from R&D Systems Inc., Minneapolis, MN These 4.5 hours solid phase ELISAs were used to measure mouse TNFα or IL6 levels in macrophages culture supernatants. Assays were executed according to the manufacturer specifications.
(ELISA stands for enzyme-linked immunosorbent assay.)

The test system of test [2] is IL-6. Nature of the test: Mouse IL6 quantification assay (LPS-stimulated RAW 264.7, ELISA). The class given is cell-based. Conditions: RAW264.7, RAW 264.7 macrophage cell line, LPS stimulation 16 h. How it is done: as §1, §2, §3, §4

By inhibition is commonly meant the drop in the measured response relative to a control, in per cent. Read a low inhibition as a weak effect. For the compound `Oc1ccc(C2(c3ccccc3)CCCC2)cc1`, the inhibition at 30 µM in test [1] and in test [2] was 76 to 100% each time.

On to `Oc1nc(-c2ccccn2)nc2c(-c3ccccc3)csc12`, for which the inhibition at 30 µM in test [1] fell in the range of 76 to 100%.

Regarding `Oc1nc(-c2ccccn2)nc2c(-c3ccccc3Cl)csc12`, the inhibition at 30 µM in test [1] was in the range of 51 to 75%.
